The values below come from US20210300912A1 (Ikena Oncology, Inc., priority 2019, published 2021).

Where two headings read alike, the source gives them in different places.

Assay [1] has as its target T1, AHR (Homo sapiens, UniProt P35869).
T1 construct: endogenous in cells; host or cells: HepG2 (human), DRE-luciferase reporter stably or transiently transfected
T1 sequence (P35869 11-848): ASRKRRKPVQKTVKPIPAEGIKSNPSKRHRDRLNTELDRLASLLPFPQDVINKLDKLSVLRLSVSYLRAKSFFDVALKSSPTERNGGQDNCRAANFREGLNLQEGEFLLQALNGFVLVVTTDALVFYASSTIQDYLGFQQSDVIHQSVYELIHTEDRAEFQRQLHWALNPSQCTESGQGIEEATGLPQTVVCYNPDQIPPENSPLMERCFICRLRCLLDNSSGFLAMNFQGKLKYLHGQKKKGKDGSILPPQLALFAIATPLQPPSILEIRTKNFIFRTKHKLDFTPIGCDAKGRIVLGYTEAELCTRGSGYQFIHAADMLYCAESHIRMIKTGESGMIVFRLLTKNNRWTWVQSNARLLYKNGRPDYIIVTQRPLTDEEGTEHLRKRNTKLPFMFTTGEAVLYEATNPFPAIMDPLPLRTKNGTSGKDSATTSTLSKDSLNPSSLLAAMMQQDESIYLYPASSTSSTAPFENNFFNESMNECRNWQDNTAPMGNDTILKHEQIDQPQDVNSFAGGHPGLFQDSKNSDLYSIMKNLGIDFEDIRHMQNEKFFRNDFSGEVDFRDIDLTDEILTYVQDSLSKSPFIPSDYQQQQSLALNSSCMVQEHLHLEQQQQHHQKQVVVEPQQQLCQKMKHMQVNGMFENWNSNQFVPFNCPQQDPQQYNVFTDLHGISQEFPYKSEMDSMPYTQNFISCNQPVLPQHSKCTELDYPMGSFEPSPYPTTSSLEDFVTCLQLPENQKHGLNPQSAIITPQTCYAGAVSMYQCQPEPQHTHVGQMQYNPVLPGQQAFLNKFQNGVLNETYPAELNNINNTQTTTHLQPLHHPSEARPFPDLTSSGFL
Briefly: DRE-Luciferase Reporter Assay, HepG2, agonist. As to conditions: HepG2 cells, agonist mode. It counts as cell-based. How it is done:
(§1) AHR binds to Dioxin Responsive Elements (DRE) upstream of genes that it activates. One measure of AHR activity is activation of a reporter gene, such as luciferase, downstream of one or multiple DRE elements. Luciferase activity will reflect activation and inhibition of AHR in the cells expressing this reporter.
(§2) Murine Hepa1-6 or Hepa-1c1c7 or other murine cell line with a DRE-luciferase reporter either stably or transiently transfected are plated in media in plates (96-well, 384-well or other plates) and incubated overnight at 37 C in a CO2 incubator. Likewise, human HepG2 or other human cell line with a DRE-luciferase reporter either stably or transiently transfected are plated in media in plates (96-well, 384-well or other plates) and incubated overnight at 37 C in a CO2 incubator.
(§3) The next day, an AHR agonist compound is added. Cells are incubated for 6, 16 or 24 hours or another time point and then lysed for determination of luciferase activity as a read-out of the AHR activation. Luciferase can be measured with a commercial kit such as the Promega Luciferase kit or any kit or reagents that provide the luciferin substrate for measuring luciferase activity. The level of luciferase with only activating ligand (e.g. such as TCDD, kynurenine, ITE (2-(1H-indole-3-ylcarbonyl)-4-thiazolecarboxylic methyl ester), VAF347, BNF (beta-naphthoflavone), ICZ (6-formylindolo(3,2-b) carbazole or other AHR ligands) added is the maximum signal while the luciferase with no ligand is the minimum signal. EC50s can be determined as the concentration which activates half of the maximum luciferase activity.
A general note: Reporter assays use an easily measured gene product as a stand-in for the process of interest.

Assay [2] addresses T2, AHR (Mus musculus, UniProt P30561).
T2 construct: endogenous in cells; host or cells: Hepa1-6 / Hepa1.6 (murine hepatoma); DRE-luciferase reporter transfected in A3, no transfection in A2
Briefly: P450 CYP1A1 Luciferase Assay, Hepa1.6, agonist. It counts as cell-based, murine. To be noted: Hepa1.6 cells, CYP1A1 enzyme activity read-out, agonist mode; Table 2. How it is done: AHR binds to Dioxin Responsive Elements (DRE) upstream of genes that it activates. One measure of AHR activity is P450 CYP1A1 protein levels determined by measuring CYP1A1 enzyme activity using a luminogenic CYP1A1 luciferin-based substrate. Luciferase activity will reflect CYP1A1 activity resulting from activation of AHR in the cells.
Murine Hepa1-6 or Hepa-1c1c7 or other murine cell line, human HepG2 or other human cell line are plated in media (96-well, 384-well or other plates) and incubated overnight at 37 C in a CO2 incubator.
as §3, with “lysed and incubated with a CYP1A1 luciferase-based substrate (e.g., Luciferin-CEE)” for “lysed”, “3, 6, or 12 hours of another time point. Determination” for “determination”, “CYP1A1 enzyme activity” for “the AHR activation. Luciferase”, “P450 Glo CYP1A1 detection reagent” for “Luciferase kit”, “provide” for “provide the luciferin substrate”, “(e.g.,” for “(e.g.”

Assay [3] concerns the target T2, AHR. Briefly: DRE-Luciferase Reporter Assay, Hepa1.6, agonist. To be noted: Hepa1.6 cells, agonist mode. The class given is cell-based, murine. How it is done:
as §1, §2, §3

Where [4] appears, read: Table 2, read-out: DRE-Luc HepG2 - Agonist: Average EC50.
Setting [5] is: Table 3, read-out: DRE-Luc HepG2 - Agonist: Average EC50.
[6] abbreviates: DRE-Luc Hepa1.6 - Agonist: Average EC50 (μM), Table 3.
Where [7] appears, read: Table 3, read-out: DRE-Luc Hepa1.6 - Agonist: Average EC50.

T2 sequence (P30561 10-805 limits assumed): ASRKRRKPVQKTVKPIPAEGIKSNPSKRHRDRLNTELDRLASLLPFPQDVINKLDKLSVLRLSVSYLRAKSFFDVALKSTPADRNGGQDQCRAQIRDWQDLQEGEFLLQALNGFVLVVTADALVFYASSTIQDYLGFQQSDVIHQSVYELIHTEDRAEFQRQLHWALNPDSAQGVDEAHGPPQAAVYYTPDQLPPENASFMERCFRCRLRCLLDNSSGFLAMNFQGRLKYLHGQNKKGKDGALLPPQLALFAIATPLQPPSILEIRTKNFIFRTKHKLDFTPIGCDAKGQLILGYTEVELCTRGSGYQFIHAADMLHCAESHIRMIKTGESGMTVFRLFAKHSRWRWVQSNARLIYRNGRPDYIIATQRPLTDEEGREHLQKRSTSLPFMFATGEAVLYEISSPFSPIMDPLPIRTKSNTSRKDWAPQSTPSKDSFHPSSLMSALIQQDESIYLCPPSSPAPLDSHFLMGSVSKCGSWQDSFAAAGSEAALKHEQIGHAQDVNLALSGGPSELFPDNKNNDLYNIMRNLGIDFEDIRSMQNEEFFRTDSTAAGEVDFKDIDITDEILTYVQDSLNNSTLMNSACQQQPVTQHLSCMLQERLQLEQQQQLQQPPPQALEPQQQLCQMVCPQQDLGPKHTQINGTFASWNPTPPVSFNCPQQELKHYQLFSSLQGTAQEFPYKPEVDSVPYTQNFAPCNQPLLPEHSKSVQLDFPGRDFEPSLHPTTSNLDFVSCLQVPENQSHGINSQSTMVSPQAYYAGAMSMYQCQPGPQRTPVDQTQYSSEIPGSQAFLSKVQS
T2 sequence (P11499 whole entry partner): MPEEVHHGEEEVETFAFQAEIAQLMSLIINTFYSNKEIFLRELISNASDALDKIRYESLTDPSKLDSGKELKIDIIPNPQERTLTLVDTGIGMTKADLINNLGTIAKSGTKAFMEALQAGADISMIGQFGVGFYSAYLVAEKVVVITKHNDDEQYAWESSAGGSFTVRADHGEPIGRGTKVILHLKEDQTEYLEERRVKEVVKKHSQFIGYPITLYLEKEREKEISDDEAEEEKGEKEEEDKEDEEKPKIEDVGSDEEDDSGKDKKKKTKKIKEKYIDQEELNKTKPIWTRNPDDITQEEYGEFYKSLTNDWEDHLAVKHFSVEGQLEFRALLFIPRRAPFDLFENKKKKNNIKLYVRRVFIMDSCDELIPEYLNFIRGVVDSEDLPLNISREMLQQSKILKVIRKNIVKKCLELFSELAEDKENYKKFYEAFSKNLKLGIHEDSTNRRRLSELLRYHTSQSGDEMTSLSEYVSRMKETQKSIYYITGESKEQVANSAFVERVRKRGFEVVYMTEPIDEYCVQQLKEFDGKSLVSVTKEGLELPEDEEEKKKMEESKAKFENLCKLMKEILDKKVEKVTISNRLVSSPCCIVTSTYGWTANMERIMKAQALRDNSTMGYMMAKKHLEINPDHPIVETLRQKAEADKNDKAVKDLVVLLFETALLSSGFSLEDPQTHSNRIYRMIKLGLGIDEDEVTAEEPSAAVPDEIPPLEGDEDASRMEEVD
T2 sequence (O08915 whole entry partner): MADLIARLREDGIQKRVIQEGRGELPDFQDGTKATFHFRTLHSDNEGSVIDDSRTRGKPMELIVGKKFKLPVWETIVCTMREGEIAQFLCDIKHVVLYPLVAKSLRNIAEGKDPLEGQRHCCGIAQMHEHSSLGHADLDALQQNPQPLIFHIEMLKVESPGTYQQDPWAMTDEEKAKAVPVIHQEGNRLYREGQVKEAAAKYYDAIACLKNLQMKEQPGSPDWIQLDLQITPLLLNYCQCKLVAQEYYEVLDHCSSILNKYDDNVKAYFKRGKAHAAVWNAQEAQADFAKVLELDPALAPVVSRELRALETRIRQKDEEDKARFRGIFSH

As a reminder, the EC50 is the concentration at which the effect is half-maximal. As to `COc1ccc2c(C(=O)c3nc(C(C)C)cs3)c[nH]c2c1` [Compound I-2], the EC50 at AHR [1] (setting [4]) was < 10 nM; at AHR [2], > 1000 nM.

On to `O=C(c1nc([C@H]2CC[C@H](C(=O)O)CC2)cs1)c1c[nH]c2ccccc12` [Compound I-4], for which the concentration for a half-maximal effect (EC50) at AHR [1] (setting [4]) was 100 to 1000 nM; at AHR [2] it was > 1000 nM.

With `O=C(O)CCCN1CCC(c2csc(C(=O)c3c[nH]c4ccccc34)n2)CC1` [Compound I-5], the EC50 on AHR [1] (setting [4]) is 100 to 1000 nM; at AHR [2], > 1000 nM.

Take `CN1CCC(c2csc(C(=O)c3c[nH]c4ccccc34)n2)CC1` [Compound I-7]: the EC50 is 100 to 1000 nM on AHR [1] (setting [4]) and > 1000 nM at AHR [2].

With `C[N+]1(C)CCC(c2csc(C(=O)c3c[nH]c4ccccc34)n2)CC1` [Compound I-8], the EC50 at AHR [1] (setting [4]) is 100 to 1000 nM; on AHR [2], > 1000 nM.

As for `O=C(c1nc([C@H]2CC[C@@H](C(=O)O)CC2)cs1)c1c[nH]c2ccccc12` [Compound I-9], the EC50 at AHR [1] (setting [4]) was 100 to 1000 nM; at AHR [2], > 1000 nM.

Regarding `Cc1sc(C(=O)c2c[nH]c3ccccc23)nc1C(=O)OC1CC[N+](C)(C)CC1` [Compound I-10], the concentration giving a half-maximal response (EC50) on AHR [1] (setting [4]) is 100 to 1000 nM; at AHR [2], > 1000 nM.

In the case of `Cc1sc(C(=O)c2c[nH]c3ccccc23)nc1C(=O)OC(C)C` [Compound I-11], the EC50 on AHR [1] (setting [4]) is 100 to 1000 nM; at AHR [2] it was > 1000 nM.

As to `O=C(O)CCC(=O)N1CCC(c2csc(C(=O)c3c[nH]c4ccccc34)n2)CC1` [Compound I-18], the EC50 on AHR [1] (setting [4]) and at AHR [2] was > 1000 nM in each case.

Turning to `CC(C)c1csc(C(=O)c2c[nH]c3ccc(S(=O)(=O)O)cc23)n1` [Compound I-19], the half-maximal effective concentration (EC50) at AHR [1] (setting [4]) and on AHR [2] was > 1000 nM throughout.

With `C[N+](C)(C)CCCN1CCC(c2csc(C(=O)c3c[nH]c4ccccc34)n2)CC1` [Compound I-20], the half-maximal effective concentration (EC50) on AHR [1] (setting [4]) and on AHR [2] was > 1000 nM in each case.

As for `C[N+](C)(C)CCC(=O)N1CCC(c2csc(C(=O)c3c[nH]c4ccccc34)n2)CC1` [Compound I-23], the concentration for a half-maximal effect (EC50) at AHR [1] (setting [4]) and at AHR [2] was > 1000 nM throughout.

On to `O=C(c1nc([C@H]2CC[C@@H](O)CC2)cs1)c1c[nH]c2ccccc12` [Compound I-47], for which the 50% effective concentration (EC50) on AHR [1] (setting [4]) and on AHR [2] was > 1000 nM each time.

Turning to `COC(=O)c1nc(C(=O)c2c[nH]c3ccccc23)sc1Cl` [Compound I-55], the EC50 at AHR [1] (setting [5]) was < 10 nM; on AHR [3] (setting [6]), 0.01 to 0.1 µM.

Take `COC(=O)c1nc(C(=O)c2c[nH]c3ccccc23)sc1N` [Compound I-56]: the 50% effective concentration (EC50) is < 10 nM at AHR [1] (setting [5]) and < 0.01 µM on AHR [3] (setting [6]).

With `CCc1csc(C(=O)c2c[nH]c3ccccc23)n1` [Compound I-57], the concentration giving a half-maximal response (EC50) on AHR [1] (setting [5]) was < 10 nM; on AHR [3] (setting [6]), < 0.01 µM.

In the case of `COC(=O)c1ccc2c(C(=O)c3nc(C(C)C)cs3)c[nH]c2c1` [Compound I-58], the 50% effective concentration (EC50) lay within 10 to 100 nM on AHR [1] (setting [5]) and 0.01 to 0.1 µM on AHR [3] (setting [6]).

`CC(C)c1csc(C(=O)c2c[nH]c3cc(C(=O)O)ccc23)n1` [Compound I-59]: the EC50 fell in the range of 100 to 1000 nM at AHR [1] (setting [5]) and 0.1 to 1 µM at AHR [3] (setting [6]).

With `COc1ccc2c(C(=O)c3nc(C(C)(C)C)cs3)c[nH]c2c1` [Compound I-60], the values for the half-maximal effective concentration (EC50) at AHR [1] (setting [5]) and on AHR [3] (setting [6]) were < 10 nM and < 0.01 µM, respectively.

As for `CC(C)(C)c1csc(C(=O)c2c[nH]c3ccccc23)n1` [Compound I-61], the concentration giving a half-maximal response (EC50) at AHR [1] (setting [5]) is < 10 nM; on AHR [3] (setting [6]) it was < 0.01 µM.

Consider `CC(C)c1csc(C(=O)c2c[nH]c3cc(C(=O)O)ccc23)n1` [Compound I-62], for which the values for the EC50 on AHR [1] (setting [5]) and on AHR [3] (setting [6]) were > 1000 nM and > 1 µM, respectively.

For the compound `CC(C)c1csc(C(=O)c2c[nH]c3ccc(C(=O)O)cc23)n1` [Compound I-78, 3-(4-Isopropylthiazole-2-carbonyl)-1H-indole-5-carboxylic acid], the 50% effective concentration (EC50) on AHR [1] (setting [5]) was 100 to 1000 nM; at AHR [3] (setting [7]), > 1 µM.

As for `CNc1sc(C(=O)c2c[nH]c3ccccc23)nc1C(=O)OC` [Compound I-84, Methyl 2-(1H-indole-3-carbonyl)-5-(methylamino)thiazole-4-carboxylate], the values for the EC50 at AHR [1] (setting [5]) and on AHR [3] (setting [6]) were < 10 nM and < 0.01 µM, respectively.

As to `CC(C)c1csc(C(=O)c2c[nH]c3c(C(=O)O)cccc23)n1` [Compound I-89], the results for the EC50 at AHR [1] (setting [5]) and on AHR [3] (setting [7]) were > 1000 nM and > 1 µM, respectively.

On to `COC(=O)c1csc(C(=O)c2c[nH]c3cc([N+](=O)[O-])ccc23)n1` [Compound I-90], for which the EC50 was in the range of 10 to 100 nM on AHR [1] (setting [5]) and 0.01 to 0.1 µM on AHR [3] (setting [6]).

For `COC(=O)c1nc(C(=O)c2c[nH]c3ccccc23)sc1Nc1ccccc1` [Compound I-91], the values for the EC50 on AHR [1] (setting [5]) and on AHR [3] (setting [7]) were > 1000 nM and > 1 µM, respectively.

`O=C(c1nc(C(F)(F)F)cs1)c1c[nH]c2ccccc12` [Compound I-92]: the concentration for a half-maximal effect (EC50) is < 10 nM at AHR [1] (setting [5]) and < 0.01 µM at AHR [3] (setting [6]).

With `COC(=O)c1csc(C(=O)c2c[nH]c3cccc(N)c23)n1` [Compound I-93], the EC50 fell in the range of 100 to 1000 nM on AHR [1] (setting [5]) and 0.01 to 0.1 µM on AHR [3] (setting [6]).

Take `CC(C)c1csc(C(=O)c2c[nH]c3cc(C(=O)OCCOCCO)ccc23)n1` [Compound I-94]: the EC50 on AHR [1] (setting [5]) is > 1000 nM; on AHR [3] (setting [7]), > 1 µM.

Turning to `COC(=O)c1nc(C(=O)c2c[nH]c3ccccc23)sc1N(C)C` [Compound I-95], the EC50 was 10 to 100 nM on AHR [1] (setting [5]) and > 1 µM at AHR [3] (setting [7]).

Regarding `COC(=O)c1ccc2c(C(=O)c3nc(C(=O)OC)c(N)s3)c[nH]c2c1` [Compound I-96], the values for the EC50 at AHR [1] (setting [5]) and at AHR [3] (setting [6]) were < 10 nM and < 0.01 µM, respectively.

`N#Cc1nc(C(=O)c2c[nH]c3ccccc23)sc1Br` [Compound I-97]: the results for the EC50 at AHR [1] (setting [5]) and on AHR [3] (setting [7]) were 100 to 1000 nM and > 1 µM, respectively.

As to `CC(C)c1csc(C(=O)c2c[nH]c3ccccc23)n1` [Compound P-2], the EC50 at AHR [1] (setting [4]) is < 10 nM; on AHR [2], > 1000 nM.

As to `CNC(=O)c1csc(C(=O)c2c[nH]c3ccccc23)n1` [Compound P-3], the EC50 on AHR [2] was > 1000 nM.

With `COC(=O)c1csc(C(=O)c2c[nH]c3ccccc23)n1` [Compound P-4], the EC50 is 10 to 100 nM on AHR [1] (setting [4]) and > 1000 nM on AHR [2].
